Laboratory results reported in patent US20240190860A1, “8-CYCLO-SUBSTITUTED QUINAZOLINE DERIVATIVES AS LPA RECEPTOR 2 INHIBITORS” (CHIESI FARMACEUTICI S.p.A., priority 2021, published 2024).
Where two headings read alike, the source gives them in different places.

Target: T1, human recombinant LPA2 expressed in CHO cells (Homo sapiens, UniProt Q9HBW0)
T1 construct: expressed in transfected cells; host or cells: CHO cells (CHO-hLPA2 cell line)
Assay: FLIPR calcium mobilization assay, LPA2 antagonism in CHO-hLPA2 cells
Type: cell-based
Summary of the method: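 CHO cells stably expressing human LPA2, loaded 30 min at 37° C with 5 μM Cal-520 AM plus 2.5 mM probenecid in HEPES buffer pH 7.4, then preincubated 30 min with antagonist (11-point series, 0.5% DMSO final). Challenged with LPA at EC80; baseline-subtracted peak FLIPR fluorescence converted to % inhibition and pIC50 by four-parameter logistic fit.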

[1] = CHO-hLPA2 cells, inhibition of LPA EC80 Ca2+ response, 30 min pre-incubation, read-out: LPA2 IC50

T1 sequence (Q9HBW0 whole entry): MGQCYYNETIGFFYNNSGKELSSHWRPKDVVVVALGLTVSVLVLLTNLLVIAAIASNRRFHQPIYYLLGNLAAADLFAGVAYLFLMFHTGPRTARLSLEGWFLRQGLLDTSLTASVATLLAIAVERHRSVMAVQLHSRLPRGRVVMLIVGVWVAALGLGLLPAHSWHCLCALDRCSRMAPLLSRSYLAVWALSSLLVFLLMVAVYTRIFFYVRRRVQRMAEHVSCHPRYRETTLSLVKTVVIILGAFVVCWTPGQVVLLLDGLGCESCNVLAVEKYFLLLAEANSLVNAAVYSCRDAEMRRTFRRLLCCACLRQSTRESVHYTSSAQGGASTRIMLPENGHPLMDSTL

| SMILES | IC50 [1] [µM] | IC50 (comparative compound, same in vitro assay, stated inactive on receptor LPA2, read-out: IC50 on LPA2 receptor) [µM] |
| --- | --- | --- |
| Cc1cc(-c2cc(S(=O)(=O)N3CCN(C[C@H](C)Nc4ncnc5c(-c6cccc(CN(C)C)c6)cccc45)CC3)cs2)on1 [Example 93, 8-{3-[(dimethylamino)methyl]phenyl}-N-[(2S)-1-(4-{[5-(3-methyl-1,2-oxazol-5-yl)thiophen-3-yl]sulfonyl}piperazin-1-yl)propan-2-yl]quinazolin-4-amine] | < 0.01 |  |
| C[C@@H](CN1CCN(S(=O)(=O)c2ccc3c(c2)sc(=O)n3C)CC1)Nc1ncnc2c(-c3cccnc3)cccc12 [Example 94, 3-methyl-6-({4-[(2S)-2-{[8-(pyridin-3-yl)quinazolin-4-yl]amino}propyl]piperazin-1-yl}sulfonyl)-2,3-dihydro-1,3-benzothiazol-2-one] | 0.01 to 0.1 |  |
| C[C@@H](CN1CCN(S(=O)(=O)c2ccc3c(c2)sc(=O)n3C)CC1)Nc1ncnc2c(-c3ccc(F)c(CN(C)C)c3)cccc12 [Example 96, 6-({4-[(2S)-2-[(8-{3-[(dimethylamino)methyl]-4-fluorophenyl}quinazolin-4-yl)amino]propyl]piperazin-1-yl}sulfonyl)-3-methyl-2,3-dihydro-1,3-benzothiazol-2-one] | < 0.01 |  |
| C[C@@H](CN1CCN(S(=O)(=O)c2ccc3[nH]c(=O)sc3c2)CC1)Nc1ncnc2c(-c3ccc(F)c(CN(C)C)c3)cccc12 [Example 97, 6-({4-[(2S)-2-[(8-{3-[(dimethylamino)methyl]-4-fluorophenyl}quinazolin-4-yl)amino]propyl]piperazin-1-yl}sulfonyl)-2,3-dihydro-1,3-benzothiazol-2-one] | < 0.01 |  |
| C[C@@H](CN1CCN(S(=O)(=O)c2ccccn2)CC1)Nc1ncnc2c(-c3cn(C)nc3C(F)(F)F)cccc12 [Example 103, 8-[1-methyl-3-(trifluoromethyl)-1H-pyrazol-4-yl]-N-[(2S)-1-[4-(pyridine-2-sulfonyl)piperazin-1-yl]propan-2-yl]quinazolin-4-amine] | 0.01 to 0.1 |  |
| C[C@@H](CN1CCN(S(=O)(=O)c2cccnc2)CC1)Nc1ncnc2c(-c3cn(C)nc3C(F)(F)F)cccc12 [Example 104, 8-[1-methyl-3-(trifluoromethyl)-1H-pyrazol-4-yl]-N-[(2S)-1-[4-(pyridine-3-sulfonyl)piperazin-1-yl]propan-2-yl]quinazolin-4-amine] | 0.01 to 0.1 |  |
| Cc1nc2ccc(S(=O)(=O)N3CCN(C[C@H](C)Nc4ncnc5c(-c6ccc(F)c(CN(C)C)c6)cccc45)CC3)cc2s1 [Example 105, 8-{3-[(dimethylamino)methyl]-4-fluorophenyl}-N-[(2S)-1-{4-[(2-methyl-1,3-benzothiazol-6-yl)sulfonyl]piperazin-1-yl}propan-2-yl]quinazolin-4-amine] | < 0.01 |  |

More lines, now with the values ahead:

| IC50 [1] [µM] | IC50 (comparative compound, same in vitro assay, stated inactive on receptor LPA2, read-out: IC50 on LPA2 receptor) [µM] | SMILES |
| --- | --- | --- |
| < 0.01 |  | COC(=O)Nc1nc(C)c(S(=O)(=O)N2CCN(C[C@H](C)Nc3ncnc4c(-c5ccc(C)nc5C)cccc34)CC2)s1 [Example 92, methyl N-[5-({4-[(2S)-2-{[8-(2,6-dimethylpyridin-3-yl)quinazolin-4-yl]amino}propyl]piperazin-1-yl}sulfonyl)-4-methyl-1,3-thiazol-2-yl]carbamate] |
| 0.01 to 0.1 |  | COC(=O)Nc1nc(C)c(S(=O)(=O)N2CCN(C[C@H](C)Nc3ncnc4c(-c5cc(C)ncn5)cccc34)CC2)s1 [Example 95, methyl N-[4-methyl-5-({4-[(2S)-2-{[8-(6-methylpyrimidin-4-yl)quinazolin-4-yl]amino}propyl]piperazin-1-yl}sulfonyl)-1,3-thiazol-2-yl]carbamate] |
| < 0.01 |  | Cc1nc(C)c(-c2cccc3c(N[C@@H](C)CN4CCN(S(=O)(=O)c5ccc6[nH]c(=O)sc6c5)CC4)ncnc23)s1 [Example 98, 6-({4-[(2S)-2-{[8-(2,4-dimethyl-1,3-thiazol-5-yl)quinazolin-4-yl]amino}propyl]piperazin-1-yl}sulfonyl)-2,3-dihydro-1,3-benzothiazol-2-one] |
| 0.01 to 0.1 |  | Cc1ccc(-c2cccc3c(N[C@@H](C)CN4CCN(S(=O)(=O)c5ccc6nc(C)sc6c5)CC4)ncnc23)cn1 [Example 99, N-[(2S)-1-{4-[(2-methyl-1,3-benzothiazol-6-yl)sulfonyl]piperazin-1-yl}propan-2-yl]-8-(6-methylpyridin-3-yl)quinazolin-4-amine] |
| 0.01 to 0.1 |  | Cc1ccc(-c2cccc3c(N[C@@H](C)CN4CCN(S(=O)(=O)c5ccc6c(c5)sc(=O)n6C)CC4)ncnc23)cn1 [Example 100, 3-methyl-6-({4-[(2S)-2-{[8-(6-methylpyridin-3-yl)quinazolin-4-yl]amino}propyl]piperazin-1-yl}sulfonyl)-2,3-dihydro-1,3-benzothiazol-2-one] |
| < 0.01 |  | COC(=O)Nc1nc(C)c(S(=O)(=O)N2CCN(C[C@H](C)Nc3ncnc4c(-c5c(C)nn(CCN(C)C)c5C)cccc34)CC2)s1 [Example 101, methyl N-[5-({4-[(2S)-2-[(8-{1-[2-(dimethylamino)ethyl]-3,5-dimethyl-1H-pyrazol-4-yl}quinazolin-4-yl)amino]propyl]piperazin-1-yl}sulfonyl)-4-methyl-1,3-thiazol-2-yl]carbamate] |
| < 0.01 |  | COC(=O)Nc1nc(C)c(S(=O)(=O)N2CCN(C[C@H](C)Nc3ncnc4c(-c5cn(CCN(C)C)nc5C(F)(F)F)cccc34)CC2)s1 [Example 102, methyl N-[5-({4-[(2S)-2-[(8-{1-[2-(dimethylamino)ethyl]-3-(trifluoromethyl)-1H-pyrazol-4-yl}quinazolin-4-yl)amino]propyl]piperazin-1-yl}sulfonyl)-4-methyl-1,3-thiazol-2-yl]carbamate] |
|  | > 3 | COC(=O)Nc1nc(C)c(S(=O)(=O)N2CCN(C[C@H](C)Nc3ncnc4ncccc34)CC2)s1 [comparative Example A, Methyl (S)-(4-methyl-5-((4-(2-(pyrido[2,3-d]pyrimidin-4 ylamino)propyl)piperazin-1-yl)sulfonyl)thiazol-2-yl)carbamate, reference compound] |
